Data as given in PMC12892976, “Alkylation-based optimization of antifungal FPPS inhibitors yields a potent, broad-spectrum lipophilic zoledronate derivative” (mBio, 2025).
Values after ≈ are worked out from the molar mass of the structure shown. Where two headings read alike, the source gives them in different places.

How the values were obtained:
Saccharomyces cerevisiae [1] = assay: MIC/MFC broth microdilution (CLSI); type: cell-based; conditions: Saccharomyces cerevisiae S288c
Description: (§1) Antifungal susceptibility was determined by broth microdilution according to the CLSI guidelines described in M27-Ed4 ([16]). […] MFC was determined by back-plating drug-treated cultures from MIC broths onto SDA plates. The MFC was defined as the lowest concentration from which no colonies could be cultured.

eight fungal species [2] = assay: checkerboard interaction with azoles, summary across the eight species; type: cell-based; conditions: geometric mean MIC in combination with azoles
Excerpt: Synergy between lipophilic FPPS inhibitors and azole antifungals was investigated by determining the fractional inhibitory concentration index (FICI) (Fig. 2; Table S1 Fig. S1) ([17]). […]. Derivatives PLA9 and 11, and PDA9, 11, and 12 antagonized azoles in C. albicans, C. neoformans, and C. deuterogattii, yet were largely synergistic in C. glabrata and S. cerevisiae. […].

Saccharomyces cerevisiae [3] = assay: checkerboard drug interaction (FICI, MICc); type: cell-based; parameters: INH MICc / INH MICc (ITR:INH) / INH MICc (KET:INH) / INH MICc (FLC:INH): unit not given beside the values;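 also: simplified diagonal checkerboard screen pairing antifungals with FPPS inhibitors, FICI calculated under the Loewe additivity model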
Aspergillus flavus [4] = assay: checkerboard drug interaction (FICI, MICc);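 also: simplified diagonal checkerboard screen pairing azole antifungals with FPPS inhibitors, FICI calculated under the Loewe additivity model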; type: cell-based; parameters: INH MICc (KET:INH) / INH MICc (FLC:INH): unit not given beside the values; conditions: A. flavus
Aspergillus fumigatus [5] = assay: checkerboard drug interaction (FICI, MICc); type: cell-based;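 also: simplified diagonal checkerboard screen pairing antifungals with FPPS inhibitors against Aspergillus fumigatus, with FICI calculated under the Loewe additivity model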
Description: (§2) Drug interactions between antifungals and FPPS inhibitors were investigated using a simplified checkerboard diagonal screening method ([45]). […] FICIs were determined according to the Loewe additivity model ([17]).

HEK-293T cells = assay: MTT reduction cytotoxicity assay; type: cell-based; conditions: Homo sapiens, HEK-293T, 72 h, MTT, 72 h
Cryptococcus neoformans [6] = assay: checkerboard drug interaction (FICI, MICc);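 as to all read-outs here: antifungal plus FPPS inhibitor pairs tested against Cryptococcus neoformans by simplified diagonal checkerboard screening, FICI computed under the Loewe additivity model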; type: cell-based; conditions: C. neoformans; for INH FD (MIC-MICc fold decrease): fold decrease of inhibitor MIC
Description: as §2

Candida glabrata [7] = assay: MIC/MFC broth microdilution (CLSI); conditions: Nakaseomyces glabratus, CBS138;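 also: broth microdilution following CLSI M27-Ed4, MFC taken as the lowest drug level yielding no growth once MIC wells were subcultured on SDA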
Description: as §1

Candida albicans [8] = assay: MIC/MFC broth microdilution (CLSI); type: cell-based; conditions: Candida albicans SC5314
Description: as §1

Candida albicans [9] = assay: checkerboard drug interaction (FICI, MICc);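 as to all read-outs here: antifungal plus FPPS inhibitor combinations on Candida albicans tested by a simplified diagonal checkerboard screen, with FICI calculated under the Loewe additivity model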; type: cell-based; conditions: C. albicans; for INH FD (MIC-MICc fold decrease): fold decrease of inhibitor MIC
Description: as §2

Cryptococcus neoformans [10] = assay: MIC/MFC broth microdilution (CLSI); conditions: Cryptococcus neoformans;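 also: susceptibility testing followed the CLSI M27-Ed4 broth microdilution document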
Description: as §1

[11] = tested on: Cryptococcus deuterogattii; assay: checkerboard drug interaction (FICI, MICc);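 as to all read-outs here: simplified diagonal checkerboard screen pairing antifungal drugs with FPPS inhibitors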; type: cell-based; conditions: C. deuterogattii; for INH FD (MIC-MICc fold decrease): fold decrease of inhibitor MIC
Description: as §2

eight fungal species [12] = assay: MIC/MFC summary across the eight fungal species of Table 1; type: cell-based
Description: The antifungal activity of these compounds was evaluated according to CLSI guidelines ([16]).

Candida glabrata [13] = assay: checkerboard drug interaction (FICI, MICc);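 as to all read-outs here: simplified diagonal checkerboard screen pairing antifungals with FPPS inhibitors, FICI calculated under the Loewe additivity model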; type: cell-based; conditions: C. glabrata; for INH FD (MIC-MICc fold decrease): fold decrease of inhibitor MIC
Description: as §2

Aspergillus flavus [14] = assay: MIC/MFC broth microdilution (CLSI); conditions: ATCC204304
Description: as §1

Trichophyton rubrum [15] = assay: MIC/MFC broth microdilution (CLSI); conditions: Trichophyton rubrum
Description: as §1

Aspergillus fumigatus [16] = assay: MIC/MFC broth microdilution (CLSI); conditions: ATCC204305
Description: as §1

Trichophyton rubrum [17] = assay: checkerboard drug interaction (FICI, MICc);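 also: simplified diagonal checkerboard screen pairing azole antifungals with FPPS inhibitors, FICI calculated under the Loewe additivity model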; type: cell-based; conditions: T. rubrum
Description: as §2

[18] = tested on: Cryptococcus deuterogattii; assay: MIC/MFC broth microdilution (CLSI); conditions: Cryptococcus deuterogattii;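 also: broth microdilution per CLSI M27-Ed4. MFC is the lowest concentration yielding no colonies when MIC broths are subcultured onto SDA plates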
Description: as §1

[19] = Fractional Inhibitory Concentration Index, fluconazole + inhibitor
[20] = Fractional Inhibitory Concentration Index, itraconazole + inhibitor
[21] = Fractional Inhibitory Concentration Index, ketoconazole + inhibitor
[22] = MIC of the inhibitor in combination with fluconazole
[23] = MIC of the inhibitor in combination with itraconazole
[24] = MIC of the inhibitor in combination with ketoconazole
[25] = MIC-MICc fold decrease of fluconazole, negative = increase
[26] = MIC-MICc fold decrease of itraconazole, negative = increase
[27] = MIC-MICc fold decrease of ketoconazole, negative = increase
[28] = MIC-MICc fold decrease of the inhibitor, with fluconazole
[29] = MIC-MICc fold decrease of the inhibitor, with itraconazole
[30] = MIC-MICc fold decrease of the inhibitor, with ketoconazole
[31] = FLC:INH combination, MIC of the inhibitor in combination with FLC
[32] = FLC:INH combination, fold decrease of FLC MIC
[33] = ITR:INH combination, MIC of the inhibitor in combination with ITR
[34] = ITR:INH combination, fold decrease of ITR MIC
[35] = KET:INH combination, MIC of the inhibitor in combination with KET
[36] = KET:INH combination, fold decrease of KET MIC

## CCCCCCCCCN1CCC[C@H]1C(=O)N[C@H](CC(=O)OC)C(=O)OC [dmPDA9]
Saccharomyces cerevisiae [1]
  MFC: 128 µg/mL (≈ 333 µM)
  MIC: 64 µg/mL (≈ 166 µM)
Eight fungal species [2]
  GM fungal MICc: 55.4
Saccharomyces cerevisiae [3]; [19]
  FICI (FLC:INH): 1.5
Saccharomyces cerevisiae [3]; [20]
  FICI (ITR:INH): 3
Saccharomyces cerevisiae [3]; [21]
  FICI (KET:INH): 2.5
Saccharomyces cerevisiae [3]; [22]
  INH MICc (FLC:INH): 64
Saccharomyces cerevisiae [3]; [23]
  INH MICc (ITR:INH): 64
Saccharomyces cerevisiae [3]; [24]
  INH MICc (KET:INH): 128
Saccharomyces cerevisiae [3]; [25]
  FLC FD (FLC:INH): 2
Saccharomyces cerevisiae [3]; [26]
  ITR FD (ITR:INH): -2
Saccharomyces cerevisiae [3]; [27]
  KET FD (KET:INH): 2
Saccharomyces cerevisiae [3]; [28]
  INH FD (FLC:INH): 1
Saccharomyces cerevisiae [3]; [29]
  INH FD (ITR:INH): 1
Saccharomyces cerevisiae [3]; [30]
  INH FD (KET:INH): -2
Aspergillus flavus [4]; [19]
  FICI (FLC:INH): 2
Aspergillus flavus [4]; [20]
  FICI (ITR:INH): 2
Aspergillus flavus [4]; [21]
  FICI (KET:INH): 1
Aspergillus flavus [4]; [22]
  INH MICc (FLC:INH): 256
Aspergillus flavus [4]; [23]
  INH MICc (ITR:INH): 256
Aspergillus flavus [4]; [24]
  INH MICc (KET:INH): 128
Aspergillus flavus [4]; [25]
  FLC FD (FLC:INH): 1
Aspergillus flavus [4]; [26]
  ITR FD (ITR:INH): 1
Aspergillus flavus [4]; [27]
  KET FD (KET:INH): 2
Aspergillus flavus [4]; [28]
  INH FD (FLC:INH): 1
Aspergillus flavus [4]; [29]
  INH FD (ITR:INH): 1
Aspergillus flavus [4]; [30]
  INH FD (KET:INH): 2
Aspergillus fumigatus [5]; [19]
  FICI (FLC:INH): 1.5
Aspergillus fumigatus [5]; [20]
  FICI (ITR:INH): 0.52
Aspergillus fumigatus [5]; [21]
  FICI (KET:INH): 2
Aspergillus fumigatus [5]; [22]
  INH MICc (FLC:INH): 128
Aspergillus fumigatus [5]; [23]
  INH MICc (ITR:INH): 2
Aspergillus fumigatus [5]; [24]
  INH MICc (KET:INH): 128
Aspergillus fumigatus [5]; [25]
  FLC FD (FLC:INH): 2
Aspergillus fumigatus [5]; [26]
  ITR FD (ITR:INH): 2
Aspergillus fumigatus [5]; [27]
  KET FD (KET:INH): 1
Aspergillus fumigatus [5]; [28]
  INH FD (FLC:INH): 1
Aspergillus fumigatus [5]; [29]
  INH FD (ITR:INH): 64
Aspergillus fumigatus [5]; [30]
  INH FD (KET:INH): 1
HEK-293T cells; HEK-293T cells, read-out: IC50
  IC50: 10.4 µg/mL (≈ 27.2 µM)
HEK-293T cells; read-out: HEK IC50
  IC50: 10.4 µg/mL (≈ 27.2 µM)
Cryptococcus neoformans [6]; FLC:INH combination
  FICI: 1.25
  INH FD (MIC-MICc fold decrease): 4
Cryptococcus neoformans [6]; [31]
  INH MICc: 32
Cryptococcus neoformans [6]; [32]
  FLC FD (MIC-MICc fold decrease): 1
Cryptococcus neoformans [6]; ITR:INH combination
  FICI: ≥4
  INH FD (MIC-MICc fold decrease): 1
Cryptococcus neoformans [6]; [33]
  INH MICc: 128
Cryptococcus neoformans [6]; [34]
  ITR FD (MIC-MICc fold decrease): -4
Cryptococcus neoformans [6]; KET:INH combination
  FICI: ≥4
  INH FD (MIC-MICc fold decrease): 1
Cryptococcus neoformans [6]; [35]
  INH MICc: 128
Cryptococcus neoformans [6]; [36]
  KET FD (MIC-MICc fold decrease): -4
Candida glabrata [7]
  MFC: > 128 µg/mL
  MIC: 128 µg/mL (≈ 333 µM)
Candida albicans [8]
  MFC: > 128 µg/mL
  MIC: 128 µg/mL (≈ 333 µM)
Candida albicans [9]; FLC:INH combination
  FICI: ≥4
  INH FD (MIC-MICc fold decrease): 2
Candida albicans [9]; [31]
  INH MICc: 64
Candida albicans [9]; [32]
  FLC FD (MIC-MICc fold decrease): < -4
Candida albicans [9]; ITR:INH combination
  FICI: ≥4
  INH FD (MIC-MICc fold decrease): 2
Candida albicans [9]; [33]
  INH MICc: 64
Candida albicans [9]; [34]
  ITR FD (MIC-MICc fold decrease): < -4
Candida albicans [9]; KET:INH combination
  FICI: ≥4
  INH FD (MIC-MICc fold decrease): 2
Candida albicans [9]; [35]
  INH MICc: 64
Candida albicans [9]; [36]
  KET FD (MIC-MICc fold decrease): < -4
Cryptococcus neoformans [10]
  MFC: 128 µg/mL (≈ 333 µM)
  MIC: 32 µg/mL (≈ 83.2 µM)
[11]; FLC:INH combination
  FICI: 3
  INH FD (MIC-MICc fold decrease): 1
[11]; [31]
  INH MICc: 128
[11]; [32]
  FLC FD (MIC-MICc fold decrease): -2
[11]; ITR:INH combination
  FICI: 1.25
  INH FD (MIC-MICc fold decrease): 4
[11]; [33]
  INH MICc: 32
[11]; [34]
  ITR FD (MIC-MICc fold decrease): 1
[11]; KET:INH combination
  FICI: 1.5
  INH FD (MIC-MICc fold decrease): 1
[11]; [35]
  INH MICc: 128
[11]; [36]
  KET FD (MIC-MICc fold decrease): 2
Eight fungal species [12]; across eight species, read-out: Geometric mean MFC
  MFC: 181 µg/mL (≈ 471 µM)
Eight fungal species [12]; geometric mean across eight species, read-out: GM fungal MIC
  MIC: 83 µg/mL (≈ 216 µM)
Eight fungal species [12]; read-out: Geometric mean MIC
  MIC: 83 µg/mL (≈ 216 µM)
Candida glabrata [13]; FLC:INH combination
  FICI: 2.5
  INH FD (MIC-MICc fold decrease): 4
Candida glabrata [13]; [31]
  INH MICc: 32
Candida glabrata [13]; [32]
  FLC FD (MIC-MICc fold decrease): -2
Candida glabrata [13]; ITR:INH combination
  FICI: 1.13
  INH FD (MIC-MICc fold decrease): 16
Candida glabrata [13]; [33]
  INH MICc: 8
Candida glabrata [13]; [34]
  ITR FD (MIC-MICc fold decrease): 1
Candida glabrata [13]; KET:INH combination
  FICI: 1.13
  INH FD (MIC-MICc fold decrease): 16
Candida glabrata [13]; [35]
  INH MICc: 8
Candida glabrata [13]; [36]
  KET FD (MIC-MICc fold decrease): 1
Aspergillus flavus [14]
  MFC: > 128 µg/mL
  MIC: > 128 µg/mL
Trichophyton rubrum [15]
  MFC: > 128 µg/mL
  MIC: 32 µg/mL (≈ 83.2 µM)
Aspergillus fumigatus [16]
  MFC: > 128 µg/mL
  MIC: 128 µg/mL (≈ 333 µM)
Trichophyton rubrum [17]; [19]
  FICI (FLC:INH): 1.25
Trichophyton rubrum [17]; [20]
  FICI (ITR:INH): 1.13
Trichophyton rubrum [17]; [21]
  FICI (KET:INH): 1.25
Trichophyton rubrum [17]; [22]
  INH MICc (FLC:INH): 32
Trichophyton rubrum [17]; [23]
  INH MICc (ITR:INH): 32
Trichophyton rubrum [17]; [24]
  INH MICc (KET:INH): 32
Trichophyton rubrum [17]; [25]
  FLC FD (FLC:INH): 4
Trichophyton rubrum [17]; [26]
  ITR FD (ITR:INH): 8
Trichophyton rubrum [17]; [27]
  KET FD (KET:INH): 4
Trichophyton rubrum [17]; [28]
  INH FD (FLC:INH): 1
Trichophyton rubrum [17]; [29]
  INH FD (ITR:INH): 1
Trichophyton rubrum [17]; [30]
  INH FD (KET:INH): 1
[18]
  MFC: 64 µg/mL (≈ 166 µM)
  MIC: 64 µg/mL (≈ 166 µM)
